The text below walks through data of patent publication US20040014217A1, “Methods of transfection” (priority 2000, published 2004).

This assay has as its system confluent 1HAEo-cells. In words: Immunofluorescence for tight junction protein occludin. In kind it is cell-based, human. The following applies: 2 mM EGTA in Opti-MEM, 30 minutes. Here is the method: To observe the double fluorescence labelling, the β-galactosidase-transfected and BrdU-labelled (as detailed above in Assay of cell proliferation) cells were fixed with 70% ethanol in 50 mM glycine buffer, pH 2.0, for 30 minutes at −20° C. The cells were then incubated with a mixture of two primary antibodies, the rabbit anti-p-galactosidase at 1:200 (Chemicon International Inc, Harrow, UK). and the mouse anti-BrdU at 1:10 (BrdU Labelling and Detection Kit; Roche, Basel, Switzerland), followed by incubation with a mixture of FITC-conjugated goat anti-rabbit IgG and texas red labelled horse anti-mouse IgG (Vector Laboratories, Peterborough, UK). Transwell inserts were then excised from the plastic holder and mounted on glass slides with aqueous mountant Vectashield (Vector Laboratories, Peterborough, UK). To observe the effects of EGTA on tight junction, the EGTA-treated cells were immunostained with a rabbit polyclonal antibody against tight junction protein occludin (Zymed, San Francisco, USA) diluted 1:10 with PBS. […] Images were observed and captured with an inverted fluorescence microscope (Olympus IX70, Olympus Optical Company, London, UK) for transwell and a confocal microscope (Leica TCS SP, Exton, Pa., USA) for excised inserts.

With `O=C(O)CN(CCOCCOCCN(CC(=O)O)CC(=O)O)CC(=O)O` [EGTA, ethylene glycol-bis(β-aminoethyl ether)-N,N,N′,N′-tetraacetic acid], the “effect on tight junctions (occludin immunofluorescence)” value is recorded as “disrupted the tight junctions”.
